Measurements from PMC9000418 (Molecules, 2022).
Read-outs that look alike come from different tables or passages of the source.

What was measured:
BChE = type: biochemical
Method: The inhibitory activities of all of the obtained chalcone derivatives (3a–3j) against cholinesterase enzymes were evaluated using the previously described in vitro modified Ellman’s spectrophotometric method.
The assay was completed in two steps. […].
[…]. The reagents and materials used in the enzyme inhibition assay were supplied commercially by Sigma-Aldrich (St. Louis, MO, USA) and Fluka (Steinheim, Germany). The cholinesterase enzyme inhibition procedure was applied as reported in our previous research papers.

AChE = AChE (Electrophorus electricus, UniProt O42275); test: AChE inhibition, in vitro modified Ellman's spectrophotometric method; type: biochemical; conditions: read-out: AChE % Inhibition
Excerpt: The assay was completed in two steps.
The reagents and materials used in the enzyme inhibition assay were supplied commercially by Sigma-Aldrich (St. Louis, MO, USA) and Fluka (Steinheim, Germany). The cholinesterase enzyme inhibition procedure was applied as reported in our previous research papers.

[1] = Cytotoxicity MTT assay in NIH/3T3 cell line; type: cell-based; conditions: mouse, NIH/3T3 mouse embryonic fibroblast cells, read-out: IC50 against NIH/3T3 cells (cytotoxicity)
Method: The NIH/3T3 mouse embryonic fibroblast cell line (ATCC® CRL-1658™, London, UK) was used for cytotoxicity assays. The incubation period of NIH/3T3 cells was based on the supplier’s recommendation. NIH/3T3 cells were seeded at 1 × 10^4 cells into each well of the 96-well plates. The MTT assay was carried out in accordance with the standards previously described.

[2] = In vitro BBB permeability assay (PAMPA); type: in vitro ADME; conditions: for Type of BBB Permeation: PAMPA, PBS pH 7.4, donor 100 μM; for BBB permeability (in words): in vitro PAMPA
Method: As it is known, the ability of drugs to be used in diseases related to the central nervous system to pass the blood–brain barrier is an indispensable feature. These properties of the synthesized compounds were estimated using physicochemical parameters. […].
To observe the BBB permeability of the active compounds 3i and 3j, the parallel artificial membrane permeability assay (PAMPA) was performed as previously described. Briefly, the solutions of each compound were prepared in dimethyl sulfoxide (DMSO) at 10 mM and then diluted with PBS (Phosphate-Buffered Saline; pH = 7.4) to obtain the donor drug solution with the nominal final concentration of 100 μM (297 μL of buffer + 3 μL of DMSO drug solution). An amount of 100 μM is suitable for direct HPLC-DAD measurements. This solution was shaken for 1 h at room temperature in a 96-well polypropylene plate (Agilent, Waldbronn, Germany) and then filtered to avoid solid particles. The data were measured in 3 replicates on each plate. After the preparation of the solutions, the assay procedure was performed according to the kit method.

[3] = DPPH free radical scavenging antioxidant activity
Excerpt: This activity method is a method based on measuring the scavenging effects of the DPPH• (1,1-Diphenyl-2-picrylhydrazil) radical, which is a stable organic nitrogen radical of antioxidants. One of the few stable organic nitrogen radicals, the DPPH• radical is dark violet in color. This method, which is based on the scavenging of the DPPH radical via antioxidants, is a redox reaction. When this radical interacts with hydrogen donors, it is reduced to hydrazine. The dark purple color of the methanolic DPPH• solution turns yellow with the addition of antioxidants, and the change in absorbance is measured spectrophotometrically. More illumination is determined by a greater reduction in the absorbance of the reaction mixture and indicates higher radical scavenging capacity.
For the DPPH free radical scavenging activity test, test compounds were prepared at 10 µM, 1 µM, 0.1 µM, and 0.01 µM concentrations, as shown in Figure 3. By using the absorbance changes determined because of the spectroscopic measurement, the % DPPH free radical scavenging activities of the synthesized compounds and reference materials (ascorbic acid and citric acid) were determined. The % antioxidant activities of all tested compounds were calculated based on the control.
This is a method based on measuring the scavenging effects of the DPPH (1,1-Diphenyl-2- picrylhydrazyl) radical, a stable organic nitrogen-centered free radical. To prepare the DPHH solution, 9.86 mg of DPPH was measured and topped up to 25 mL with methanol. A total of 100 µL of DPPH solution and 100 µL of the test solutions were placed in the test wells. Only 200 µL of methanol was used for blank reading; 100 µL of methanol and 100 µL of DPPH solution were used for control. After incubation, spectrophotometric reading was performed at 517 nm.

Sequence of AChE (O42275 24-633): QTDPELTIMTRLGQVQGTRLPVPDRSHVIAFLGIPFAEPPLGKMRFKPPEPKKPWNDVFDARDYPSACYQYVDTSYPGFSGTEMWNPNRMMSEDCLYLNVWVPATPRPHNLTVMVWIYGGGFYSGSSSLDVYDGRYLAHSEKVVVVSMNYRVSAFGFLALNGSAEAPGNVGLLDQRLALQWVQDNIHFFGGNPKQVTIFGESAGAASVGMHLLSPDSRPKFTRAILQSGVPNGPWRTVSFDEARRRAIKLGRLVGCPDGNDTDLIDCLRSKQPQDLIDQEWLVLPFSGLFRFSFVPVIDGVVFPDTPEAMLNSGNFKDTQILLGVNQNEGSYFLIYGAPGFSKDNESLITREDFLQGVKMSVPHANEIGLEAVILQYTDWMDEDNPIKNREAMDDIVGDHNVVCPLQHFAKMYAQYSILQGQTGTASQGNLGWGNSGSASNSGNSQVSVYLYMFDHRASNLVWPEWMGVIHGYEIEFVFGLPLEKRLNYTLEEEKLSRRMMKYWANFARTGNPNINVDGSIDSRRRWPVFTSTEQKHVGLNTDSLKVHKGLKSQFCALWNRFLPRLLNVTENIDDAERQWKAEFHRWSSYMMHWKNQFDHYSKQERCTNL

With `CCNc1nnc(SCC(=O)c2ccc3c(c2)NC(=O)CS3)s1` [Compound 3a, 6-(2-((5-(Ethylamino)-1,3,4-thiadiazol-2-yl)sulfanyl)acetyl)-2H-benzo[b][1,4]thiazin-3(4H)-one] the “BChE % Inhibition” value (BChE; 10^−3 M) was 31.8 ± 0.8%, the “BChE % Inhibition” value (BChE; 10^−4 M) was 25.1 ± 0.8% and the inhibition at 100 µM (AChE) was 48.8 ± 0.8%. It also gave an inhibition at 1000 µM (AChE) of 78.2 ± 1.2%.

With `CCCNc1nnc(SCC(=O)c2ccc3c(c2)NC(=O)CS3)s1` [Compound 3b, 6-(2-((5-(Propylamino)-1,3,4-thiadiazol-2-yl)sulfanyl)acetyl)-2H-benzo[b][1,4]thiazin-3(4H)-one] the “BChE % Inhibition” value (BChE; 10^−3 M) was 34.9 ± 0.8%, the “BChE % Inhibition” value (BChE; 10^−4 M) was 26.9 ± 0.6% and the inhibition at 100 µM (AChE) was 45.6 ± 0.9%. For the same molecule, the inhibition at 1000 µM (AChE) was 75.4 ± 1.4%.

With `CC(C)Nc1nnc(SCC(=O)c2ccc3c(c2)NC(=O)CS3)s1` [Compound 3c, 6-(2-((5-(Isopropylamino)-1,3,4-thiadiazol-2-yl)sulfanyl)acetyl)-2H-benzo[b][1,4]thiazin-3(4H)-one] the “BChE % Inhibition” value (BChE; 10^−3 M) was 29.1 ± 0.8%, the “BChE % Inhibition” value (BChE; 10^−4 M) was 20.4 ± 0.7% and the inhibition at 100 µM (AChE) was 40.1 ± 0.9%. The inhibition at 1000 µM (AChE) was 70.6 ± 1%.

With `CCCCNc1nnc(SCC(=O)c2ccc3c(c2)NC(=O)CS3)s1` [Compound 3d, 6-(2-((5-(Butylamino)-1,3,4-thiadiazol-2-yl)sulfanyl)acetyl)-2H-benzo[b][1,4]thiazin-3(4H)-one] the “BChE % Inhibition” value (BChE; 10^−3 M) was 36.1 ± 0.9%, the “BChE % Inhibition” value (BChE; 10^−4 M) was 21.4 ± 0.9% and the inhibition at 100 µM (AChE) was 47.3 ± 0.9%. The inhibition at 1000 µM (AChE) was 72.7 ± 1.5%.

With `CC(C)CNc1nnc(SCC(=O)c2ccc3c(c2)NC(=O)CS3)s1` [Compound 3e, 6-(2-((5-(Isobutylamino)-1,3,4-thiadiazol-2-yl)sulfanyl)acetyl)-2H-benzo[b][1,4]thiazin-3(4H)-one] the “BChE % Inhibition” value (BChE; 10^−3 M) was 37.3 ± 0.8%, the “BChE % Inhibition” value (BChE; 10^−4 M) was 24.6 ± 0.9% and the inhibition at 100 µM (AChE) was 46.2 ± 0.8%. It also gave an inhibition at 1000 µM (AChE) of 69.9 ± 1.2%.

For `O=C1CSc2ccc(C(=O)CSc3nnc(NC4CCCCC4)s3)cc2N1` [Compound 3f, 6-(2-((5-(Cyclohexylamino)-1,3,4-thiadiazol-2-yl)sulfanyl)acetyl)-2H-benzo[b][1,4]thiazin-3(4H)-one], the “BChE % Inhibition” value (BChE; 10^−3 M) was 30.5 ± 0.8%, the “BChE % Inhibition” value (BChE; 10^−4 M) was 26.2 ± 0.8% and the inhibition at 100 µM (AChE) was 45 ± 1%. For the same molecule, the inhibition at 1000 µM (AChE) was 65.4 ± 1.3%.

For `O=C1CSc2ccc(C(=O)CSc3nnc(Nc4ccccc4)s3)cc2N1` [Compound 3g, 6-(2-((5-(Phenylamino)-1,3,4-thiadiazol-2-yl)sulfanyl)acetyl)-2H-benzo[b][1,4]thiazin-3(4H)-one], the “BChE % Inhibition” value (BChE; 10^−3 M) was 39.6 ± 0.9%, the “BChE % Inhibition” value (BChE; 10^−4 M) was 24.8 ± 0.8% and the inhibition at 100 µM (AChE) was 44.5 ± 0.8%. The inhibition at 1000 µM (AChE) was 80.1 ± 1.2%.

In the case of `Cc1ccc(Nc2nnc(SCC(=O)c3ccc4c(c3)NC(=O)CS4)s2)cc1` [Compound 3h, 6-(2-((5-(p-Tolylamino)-1,3,4-thiadiazol-2-yl)sulfanyl)acetyl)-2H-benzo[b][1,4]thiazin-3(4H)-one], the “BChE % Inhibition” value (BChE; 10^−3 M) is reported as 35.6 ± 0.7%, the “BChE % Inhibition” value (BChE; 10^−4 M) is reported as 23.5 ± 0.7% and the inhibition at 100 µM (AChE) is reported as 42.7 ± 0.8%. For the same molecule, the inhibition at 1000 µM (AChE) was 82.2 ± 1.8%.

For `COc1ccc(Nc2nnc(SCC(=O)c3ccc4c(c3)NC(=O)CS4)s2)cc1` [Compound 3i, 6-(2-((5-((4-Methoxyphenyl)amino)-1,3,4-thiadiazol-2-yl)sulfanyl)acetyl)-2H-benzo[b][1,4]thiazin-3(4H)-one], the “BChE % Inhibition” value (BChE; 10^−3 M) was 40.2 ± 0.9%, the “BChE % Inhibition” value (BChE; 10^−4 M) was 28.0 ± 0.8% and the IC50 [1] was 98.3 ± 3.98 µM. For the same molecule, the “Type of BBB Permeation” value [2] was “CNS+ High BBB permeation (High BBB permeation Pe (10^−6 cm s^−1) > 4.0)”, the “BBB permeability (in words)” value [2] was “high BBB permeability” and the inhibition at 100 µM (AChE) was 90.5 ± 1.1%. The inhibition at 1000 µM (AChE) was 93.2 ± 1.4%, the “% DPPH free radical scavenging (inhibition)” value ([3]; 0.01 µM) was 65.00% ± 1.10 and the “% DPPH free radical scavenging (inhibition)” value ([3]; 0.1 µM) was 75.00% ± 1.80. The “% DPPH free radical scavenging (inhibition)” value ([3]; 1 µM) was 82.00% ± 1.20 and the “% DPPH free radical scavenging (inhibition)” value ([3]; 10 µM) was 90.00% ± 2.40.

In the case of `O=C1CSc2ccc(C(=O)CSc3nnc(Nc4ccc(Cl)cc4)s3)cc2N1` [Compound 3j, 6-(2-((5-((4-chlorophenyl)amino)-1,3,4-thiadiazol-2-yl)sulfanyl)acetyl)-2H benzo[b][1,4]thiazin-3(4H)-one], the “BChE % Inhibition” value (BChE; 10^−3 M) is reported as 42.5 ± 0.9%, the “BChE % Inhibition” value (BChE; 10^−4 M) is reported as 27.9 ± 0.7% and the IC50 [1] is reported as 160 ± 5.53 µM. For the same molecule, the “Type of BBB Permeation” value [2] was “CNS+ High BBB permeation (High BBB permeation Pe (10^−6 cm s^−1) > 4.0)”, the “BBB permeability (in words)” value [2] was “high BBB permeability” and the inhibition at 100 µM (AChE) was 92.3 ± 1.3%. The inhibition at 1000 µM (AChE) was 96.5 ± 1.2%, the “% DPPH free radical scavenging (inhibition)” value ([3]; 0.01 µM) was 68.00% ± 1.50 and the “% DPPH free radical scavenging (inhibition)” value ([3]; 0.1 µM) was 73.00% ± 1.40. For the same molecule, the “% DPPH free radical scavenging (inhibition)” value ([3]; 1 µM) was 85.00% ± 2.00 and the “% DPPH free radical scavenging (inhibition)” value ([3]; 10 µM) was 92.00% ± 1.80.
